Data taken from ChEMBL document CHEMBL3351865, “N-aryl-2-aminobenzimidazoles: novel, efficacious, antimalarial lead compounds” (J Med Chem, 2014).
Values after ≈ are worked out from the molar mass of the structure shown.

Legend:
in vitro [1] = settings: human, THP-1 cells
Description: Selectivity index, ratio of IC50 for human THP1 cells to IC50 for Plasmodium falciparum

Plasmodium falciparum [2] = assay: microbe, parasite or virus in culture; settings: NF54
Description: Antiplasmodial activity against Plasmodium falciparum NF54 by SYBR-green based assay

Plasmodium falciparum [3] = assay: microbe, parasite or virus in culture; settings: K1
Description: Antiplasmodial activity against Plasmodium falciparum K1 by SYBR-green based assay

[4] = target: Voltage-gated inwardly rectifying potassium channel KCNH2 (Homo sapiens, UniProt Q12809)
Sequence of Voltage-gated inwardly rectifying potassium channel KCNH2 (Q12809 whole entry): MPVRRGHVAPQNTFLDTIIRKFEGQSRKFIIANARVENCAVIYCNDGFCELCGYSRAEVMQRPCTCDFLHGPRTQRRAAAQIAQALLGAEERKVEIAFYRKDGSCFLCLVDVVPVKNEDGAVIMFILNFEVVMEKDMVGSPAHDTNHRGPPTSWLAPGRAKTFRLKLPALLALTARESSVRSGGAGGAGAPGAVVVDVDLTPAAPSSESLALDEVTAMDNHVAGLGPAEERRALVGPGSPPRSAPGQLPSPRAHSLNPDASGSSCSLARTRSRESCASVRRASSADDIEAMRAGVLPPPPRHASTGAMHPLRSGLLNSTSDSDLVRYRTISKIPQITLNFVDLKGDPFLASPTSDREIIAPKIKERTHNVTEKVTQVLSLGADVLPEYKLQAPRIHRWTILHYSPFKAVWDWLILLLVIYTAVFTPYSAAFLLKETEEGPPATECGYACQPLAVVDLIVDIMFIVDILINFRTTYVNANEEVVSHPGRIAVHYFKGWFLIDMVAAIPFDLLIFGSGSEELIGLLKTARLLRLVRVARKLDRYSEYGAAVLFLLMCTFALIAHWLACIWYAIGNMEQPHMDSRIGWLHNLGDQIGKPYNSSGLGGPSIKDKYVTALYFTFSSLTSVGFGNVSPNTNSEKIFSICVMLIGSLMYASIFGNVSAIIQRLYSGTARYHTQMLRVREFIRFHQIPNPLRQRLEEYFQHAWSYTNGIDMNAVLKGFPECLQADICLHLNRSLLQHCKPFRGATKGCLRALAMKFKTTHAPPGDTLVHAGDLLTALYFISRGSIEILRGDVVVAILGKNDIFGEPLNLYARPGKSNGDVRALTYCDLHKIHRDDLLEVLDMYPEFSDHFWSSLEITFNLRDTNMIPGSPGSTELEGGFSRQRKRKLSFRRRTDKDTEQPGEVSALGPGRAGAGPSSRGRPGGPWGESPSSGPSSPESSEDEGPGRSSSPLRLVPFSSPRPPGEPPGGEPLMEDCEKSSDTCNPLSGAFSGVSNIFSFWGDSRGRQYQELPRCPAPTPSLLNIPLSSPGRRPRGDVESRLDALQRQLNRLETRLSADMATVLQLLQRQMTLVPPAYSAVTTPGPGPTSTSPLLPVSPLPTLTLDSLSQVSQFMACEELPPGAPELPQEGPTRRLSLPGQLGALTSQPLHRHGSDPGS

physchem [5] = settings: buffer
Description: Aqueous solubility of the compound

physchem [6] = settings: buffer, pH 7.4
Description: Lipophilicity, logD of the compound at pH 7.4

in vitro [7] = settings: human, plasma
Description: Unbound fraction in human plasma

in vitro [8] = settings: human, microsomes
Description: Clearance in human microsomes

in vitro [9] = settings: human, hepatocytes
Description: Clearance in human hepatocytes assessed per million cells

Plasmodium falciparum [10] = assay: microbe, parasite or virus in culture; settings: 7G8
Description: Antiplasmodial activity against Plasmodium falciparum 7G8 harboring mutations conferring drug-resistance by SYBR-green based assay

Plasmodium falciparum [11] = assay: microbe, parasite or virus in culture; settings: W2
Description: Antiplasmodial activity against Plasmodium falciparum W2 harboring mutations conferring drug-resistance by SYBR-green based assay

Plasmodium falciparum [12] = assay: microbe, parasite or virus in culture; settings: SB1-A6
Description: Antiplasmodial activity against Plasmodium falciparum SB1-A6 harboring mutations conferring drug-resistance by SYBR-green based assay

Plasmodium falciparum [13] = assay: microbe, parasite or virus in culture; settings: Dd2
Description: Antiplasmodial activity against Plasmodium falciparum Dd2 harboring mutations conferring drug-resistance by SYBR-green based assay

Plasmodium berghei [14] = assay: Antiplasmodial activity against Plasmodium berghei infected in mouse assessed as reduction in parasitemia at 100 mg/kg treated with four once daily doses; assay type: functional
Plasmodium berghei [15] = assay: Antiplasmodial activity against Plasmodium berghei infected in mouse assessed as increase in mean survival days at 100 mg/kg treated with four once daily doses; assay type: functional
[16] = Half life in Plasmodium berghei infected mouse at 100 mg/kg treated with four once daily doses; assay type: ADME, organism-based; parameters: dose 100 mg/kg; settings: in vivo
[17] = Cmax in Plasmodium berghei infected mouse at 100 mg/kg treated with four once daily doses; assay type: ADME, organism-based; parameters: dose 100 mg/kg; settings: in vivo
[18] = AUClast in Plasmodium berghei infected mouse at 100 mg/kg treated with four once daily doses; assay type: ADME, organism-based; parameters: time 0 - last, dose 100 mg/kg; settings: plasma
Plasmodium berghei [19] = settings: dose 30 mg/kg
Description: Antiplasmodial activity against Plasmodium berghei infected in mouse assessed as increase in mean survival days at 30 mg/kg treated with four once daily doses

Plasmodium berghei [20] = settings: dose 50 mg/kg
Description: Antiplasmodial activity against Plasmodium berghei infected in mouse assessed as increase in mean survival days at 50 mg/kg treated with four once daily doses

in vivo [21] = settings: mouse, 30 mg/kg
Description: Half life in Plasmodium berghei infected mouse at 30 mg/kg treated with four once daily doses

in vivo [22] = settings: mouse, 30 mg/kg; remark: listed apart in the source
in vivo [23] = settings: mouse, plasma, 30 mg/kg
Description: AUClast in Plasmodium berghei infected mouse at 30 mg/kg treated with four once daily doses

in vivo [24] = settings: mouse, 50 mg/kg
Description: Half life in Plasmodium berghei infected mouse at 50 mg/kg treated with four once daily doses

in vivo [25] = settings: mouse, 50 mg/kg; remark: listed apart in the source
in vivo [26] = settings: mouse, plasma, 50 mg/kg
Description: AUClast in Plasmodium berghei infected mouse at 50 mg/kg treated with four once daily doses

Plasmodium berghei [27] = assay: animal or person; settings: in Mus musculus, read-out: INH
Description: Antiplasmodial activity against Plasmodium berghei infected in mouse assessed as reduction in parasitemia at 30 mg/kg treated with four once daily doses

Plasmodium berghei [28] = assay: animal or person; settings: in Mus musculus, read-out: INH; remark: listed apart in the source
Description: Antiplasmodial activity against Plasmodium berghei infected in mouse assessed as reduction in parasitemia at 50 mg/kg treated with four once daily doses

in vivo [29] = settings: rat, iv, 1 mg/kg
Description: Half life in rat at 1 mg/kg, iv

in vivo [30] = settings: rat, plasma, iv, 1 mg/kg
in vivo [31] = settings: rat, iv, 1 mg/kg; remark: listed apart in the source
Description: Clearance in rat at 1 mg/kg, iv

in vivo [32] = settings: rat, iv, 1 mg/kg; remark: listed apart in the source
Description: Volume of distribution at steady state in rat at 1 mg/kg, iv

in vivo [33] = settings: rat, po, 5 mg/kg
Description: Half life in rat at 5 mg/kg, po

in vivo [34] = settings: rat, po, 5 mg/kg; remark: listed apart in the source
in vivo [35] = settings: rat, po, 5 mg/kg; remark: listed apart in the source

CN1CCN(c2ccc3nc(Nc4ccc(Br)cc4)[nH]c3c2)CC1
selectivity ratio (in vitro [1]): > 1190
IC50 (Plasmodium falciparum [2]): 210 nM
IC50 (Plasmodium falciparum [3]): 390 nM

CN1CCN(c2ccc3nc(Nc4ccccn4)[nH]c3c2)CC1
selectivity ratio (in vitro [1]): > 86
IC50 (Plasmodium falciparum [2]): > 500 nM
IC50 (Plasmodium falciparum [3]): > 500 nM

Cc1ccc(Nc2nc3ccc(N4CCN(C)CC4)cc3[nH]2)nc1
IC50 [4]: 12700 nM
selectivity ratio (in vitro [1]): > 385
solubility (physchem [5]): 1170 µM (≈ 377 µg/mL)
logD (physchem [6]): 2.2
fraction unbound (in vitro [7]): 0.183
microsomal CLint (in vitro [8]): 4.8 µL/min/mg
hepatocyte CLint (in vitro [9]): 19.5 µL/min/1e6 cells
IC50 (Plasmodium falciparum [2]): 130 nM
IC50 (Plasmodium falciparum [3]): 270 nM
IC50 (Plasmodium falciparum [10]): 307 nM
IC50 (Plasmodium falciparum [11]): 437 nM
IC50 (Plasmodium falciparum [12]): 86.2 nM
IC50 (Plasmodium falciparum [13]): 201 nM

CN1CCN(Cc2ccc3nc(Nc4ccc(C(F)(F)F)cn4)[nH]c3c2)CC1
solubility (physchem [5]): > 1000 µM
logD (physchem [6]): 3.2
fraction unbound (in vitro [7]): 0.275
microsomal CLint (in vitro [8]): < 4 µL/min/mg
hepatocyte CLint (in vitro [9]): 7.5 µL/min/1e6 cells
IC50 (Plasmodium falciparum [2]): 93 nM
IC50 (Plasmodium falciparum [3]): 166 nM

OCCN1CCN(c2ccc3nc(Nc4ccc(C(F)(F)F)cn4)[nH]c3c2)CC1
selectivity ratio (in vitro [1]): > 1110
IC50 (Plasmodium falciparum [2]): 130 nM
IC50 (Plasmodium falciparum [3]): 210 nM

CN1CCN(c2ccc3nc(Nc4ccc(C(F)(F)F)cn4)[nH]c3c2)CC1
inhibition in vivo at 100 mg/kg (Plasmodium berghei [14]): 99.9%
MSD (Plasmodium berghei [15]): 24 days
half-life [16]: 4.9 h
Cmax [17]: 6.1 µM
AUC(0-t) [18]: 41.6 µM·h
MSD (Plasmodium berghei [19]): 10 days
MSD (Plasmodium berghei [20]): 15 days
half-life (in vivo [21]): 3.7 h
Cmax (in vivo [22]): 3.3 µM
AUC(0-t) (in vivo [23]): 19.2 µM·h
half-life (in vivo [24]): 5.4 h
Cmax (in vivo [25]): 5 µM
AUC(0-t) (in vivo [26]): 33.7 µM·h
selectivity ratio (in vitro [1]): 890
inhibition in vivo at 30 mg/kg (Plasmodium berghei [27]): 81.3%
inhibition in vivo at 50 mg/kg (Plasmodium berghei [28]): 99.9%
IC50 (Plasmodium falciparum [2]): 82 nM
IC50 (Plasmodium falciparum [3]): 120 nM

CN1CCN(c2ccc3nc(Nc4ccc(C(F)(F)F)nc4)[nH]c3c2)CC1
selectivity ratio (in vitro [1]): > 500
IC50 (Plasmodium falciparum [2]): > 500 nM
IC50 (Plasmodium falciparum [3]): > 500 nM

CN1CCN(c2cc3[nH]c(Nc4ccc(C(F)(F)F)cn4)nc3cn2)CC1
selectivity ratio (in vitro [1]): 1030
IC50 (Plasmodium falciparum [2]): 29 nM
IC50 (Plasmodium falciparum [3]): 54 nM

CN1CCN(c2cc(Cl)c3nc(Nc4ccc(Br)cn4)[nH]c3c2)CC1
solubility (physchem [5]): > 1000 µM
logD (physchem [6]): 3
fraction unbound (in vitro [7]): 0.301
microsomal CLint (in vitro [8]): < 4 µL/min/mg
hepatocyte CLint (in vitro [9]): 9 µL/min/1e6 cells
IC50 (Plasmodium falciparum [2]): 110 nM
IC50 (Plasmodium falciparum [3]): 160 nM

CN1CCN(c2nc3[nH]c(Nc4ccc(Br)cn4)nc3cc2F)CC1
selectivity ratio (in vitro [1]): > 100
IC50 (Plasmodium falciparum [2]): > 500 nM
IC50 (Plasmodium falciparum [3]): > 500 nM

Brc1ccc(Nc2nc3ccc(N4CCNCC4)cc3[nH]2)nc1
MSD (Plasmodium berghei [20]): 11 days
half-life (in vivo [24]): 4.5 h
Cmax (in vivo [25]): 25.5 µM
AUC(0-t) (in vivo [26]): 202 µM·h
selectivity ratio (in vitro [1]): 961
inhibition in vivo at 50 mg/kg (Plasmodium berghei [28]): 99.9%
IC50 (Plasmodium falciparum [2]): 39 nM
IC50 (Plasmodium falciparum [3]): 278 nM

Brc1ccc(Nc2nc3ccc(N4CCOCC4)cc3[nH]2)nc1
selectivity ratio (in vitro [1]): > 100
IC50 (Plasmodium falciparum [2]): > 500 nM
IC50 (Plasmodium falciparum [3]): > 500 nM

CN1CCC(c2ccc3nc(Nc4ccc(C(F)(F)F)cn4)[nH]c3c2)CC1
MSD (Plasmodium berghei [19]): 25 days
MSD (Plasmodium berghei [20]): 30 days
half-life (in vivo [29]): 14.9 h
AUC (in vivo [30]): 6 µM·h
clearance (in vivo [31]): 14.9 mL/min/kg
Vd (in vivo [32]): 16.9 L/kg
half-life (in vivo [33]): 19.2 h
Cmax (in vivo [34]): 0.5 µM
half-life (in vivo [21]): 9.3 h
Cmax (in vivo [22]): 5.2 µM
AUC(0-t) (in vivo [23]): 54 µM·h
half-life (in vivo [24]): 18.5 h
Cmax (in vivo [25]): 8.8 µM
AUC(0-t) (in vivo [26]): 131 µM·h
bioavailability (in vivo [35]): 79%
solubility (physchem [5]): 121 µM (≈ 45.4 µg/mL)
logD (physchem [6]): 3
fraction unbound (in vitro [7]): 0.134
microsomal CLint (in vitro [8]): < 4 µL/min/mg
hepatocyte CLint (in vitro [9]): 4.7 µL/min/1e6 cells
inhibition in vivo at 30 mg/kg (Plasmodium berghei [27]): 98.9%
inhibition in vivo at 50 mg/kg (Plasmodium berghei [28]): 99.8%
IC50 (Plasmodium falciparum [2]): 36 nM
IC50 (Plasmodium falciparum [3]): 59 nM

CN1CCC(c2ccc3nc(Nc4ccc(C(F)(F)F)cn4)[nH]c3c2)C1 (centres undefined)
IC50 (Plasmodium falciparum [2]): 53 nM
IC50 (Plasmodium falciparum [3]): 85 nM

FC(F)(F)c1ccc(Nc2nc3ccc(N4CCN5CCCC5C4)cc3[nH]2)nc1 (centres undefined)
selectivity ratio (in vitro [1]): 357
IC50 (Plasmodium falciparum [2]): 56 nM
IC50 (Plasmodium falciparum [3]): 119 nM

CN1C2CCC1CC(c1ccc3nc(Nc4ccc(C(F)(F)F)cn4)[nH]c3c1)C2 (centres undefined)
selectivity ratio (in vitro [1]): 308
IC50 (Plasmodium falciparum [2]): 94 nM
IC50 (Plasmodium falciparum [3]): 200 nM

CN1CCN(C(=O)c2ccc3nc(Nc4ccc(Br)cn4)[nH]c3c2)CC1
selectivity ratio (in vitro [1]): 548
IC50 (Plasmodium falciparum [2]): 450 nM
IC50 (Plasmodium falciparum [3]): > 500 nM

Cc1nc(Nc2nc3ccc(N4CCN(C)CC4)cc3[nH]2)ccc1F
selectivity ratio (in vitro [1]): > 1050
IC50 (Plasmodium falciparum [2]): 48 nM
IC50 (Plasmodium falciparum [3]): 110 nM
IC50 (Plasmodium falciparum [10]): 98.8 nM
IC50 (Plasmodium falciparum [11]): 106 nM

Cc1nc(Nc2nc3cnc(N4CCN(C)CC4)cc3[nH]2)ccc1Cl
selectivity ratio (in vitro [1]): 500
IC50 (Plasmodium falciparum [2]): 44 nM
IC50 (Plasmodium falciparum [3]): 110 nM

CN1CCC(c2ccc3nc(Nc4ncc(C(F)(F)F)cc4Cl)[nH]c3c2)CC1
IC50 (Plasmodium falciparum [2]): 80 nM
IC50 (Plasmodium falciparum [3]): 130 nM

Cc1nc(Nc2nc3cnc(N4CCN(C)CC4)cc3[nH]2)cc(C2CC2)c1F
solubility (physchem [5]): 5.6 µM (≈ 2.14 µg/mL)
logD (physchem [6]): 3.9
fraction unbound (in vitro [7]): 0.051
microsomal CLint (in vitro [8]): 21.8 µL/min/mg
hepatocyte CLint (in vitro [9]): 11.3 µL/min/1e6 cells
IC50 (Plasmodium falciparum [2]): 17 nM
IC50 (Plasmodium falciparum [3]): 26 nM

Cc1nc(Nc2nc3ccc(C4CCN(C)CC4)cc3[nH]2)cc(C2CC2)c1F
selectivity ratio (in vitro [1]): 692
IC50 (Plasmodium falciparum [2]): 13 nM
IC50 (Plasmodium falciparum [3]): 30 nM

C[C@@H]1CC[C@H]2[C@@H](C)C(=O)O[C@@H]3O[C@@]4(C)CC[C@@H]1[C@]32OO4 [ARTEMISININ]
IC50 (Plasmodium falciparum [2]): 7.1 nM
IC50 (Plasmodium falciparum [10]): 1.3 nM
IC50 (Plasmodium falciparum [11]): 6.5 nM
IC50 (Plasmodium falciparum [12]): 16.6 nM
IC50 (Plasmodium falciparum [13]): 10.3 nM

O=C1C(O)=C([C@H]2CC[C@H](c3ccc(Cl)cc3)CC2)C(=O)c2ccccc21 [ATOVAQUONE]
IC50 (Plasmodium falciparum [3]): 2.3 nM
IC50 (Plasmodium falciparum [10]): 2.3 nM
IC50 (Plasmodium falciparum [12]): > 2000 nM
IC50 (Plasmodium falciparum [13]): 2 nM

CCc1nc(N)nc(N)c1-c1ccc(Cl)cc1 [PYRIMETHAMINE]
IC50 (Plasmodium falciparum [12]): 10.9 nM
